Laboratory results taken from patent publication US9078874B2, “Composition and method for treating cognitive impairments in down syndrom subjects” (Centre National De La Recherche Scientifique—CNRS, priority 2009, dated 2015).

Key:
rats = conditions: cited from earlier work
euploid and Ts65Dn mice [1] = test: Convulsant effects after a single intraperitoneal injection; format: in vivo; conditions: 50 mg/kg i.p., observed 20 min
Method: The convulsant action of the α5IA or beta CCM was evaluated after a single intraperitoneal injection of 50 or 3 mg/Kg of α5IA or beta CCM, respectively. The 50 mg/Kg dose of α5IA corresponded to 10 times the dose with promnesiant effects and 10 times the active dose in the object recognition test (5 mg/Kg)
The proconvulsant action of the α5IA was measured after injection of a subconvulsive dose of pentylenetetrazole. Mice were injected with either vehicle or the α5IA (50 mg/kg i.p) and 20 min later they received an intraperitoneal injection of 45 mg/kg of pentylenetetrazole. […] Six to 7 mice were used for each condition. The latency to the first myoclonic jerk episode and the convulsion grade were recorded during a 1200-s period of observation. Four grades were empirically determined: Grade 0: no effect; grade 1: tail up and curved; grade 2: reversed tail and convulsive shivers; grade 3: myoclonic convulsions.
We then tested the proconvulsant effect of α5IA by injecting it (50 mg/kg) 20 min before a sub-convulsant dose of pentylenetetrazol (45 mg/kg) that induces myoclonic convulsions in about 50% of mice.

[2] = tested on: GABAA receptors α1, α2, α3 and α5 subtypes; conditions: α1, α2 and α3 subtypes; cited from earlier work
[3] = biological target: GABAA receptors α1, α2, α3 and α5 subtypes (Homo sapiens, UniProt P31644); conditions: α5 subtype; cited from earlier work
Sequence of GABAA receptors α1, α2, α3 and α5 subtypes (Homo sapiens, UniProt P31644) (P31644 32-462): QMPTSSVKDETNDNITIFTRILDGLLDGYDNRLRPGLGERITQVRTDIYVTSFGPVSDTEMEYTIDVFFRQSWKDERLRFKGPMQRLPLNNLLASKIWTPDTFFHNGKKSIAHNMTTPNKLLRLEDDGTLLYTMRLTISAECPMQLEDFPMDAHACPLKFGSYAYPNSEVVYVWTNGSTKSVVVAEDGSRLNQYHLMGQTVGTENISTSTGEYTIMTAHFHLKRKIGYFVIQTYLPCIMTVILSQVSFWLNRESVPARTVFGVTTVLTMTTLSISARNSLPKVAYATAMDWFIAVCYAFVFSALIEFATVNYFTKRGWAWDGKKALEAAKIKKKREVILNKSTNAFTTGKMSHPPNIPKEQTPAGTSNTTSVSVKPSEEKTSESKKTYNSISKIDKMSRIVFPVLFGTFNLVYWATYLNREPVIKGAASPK
Sequence of GABAA receptors α1, α2, α3 and α5 subtypes (Homo sapiens, UniProt P31644) (P28472 26-473 partner): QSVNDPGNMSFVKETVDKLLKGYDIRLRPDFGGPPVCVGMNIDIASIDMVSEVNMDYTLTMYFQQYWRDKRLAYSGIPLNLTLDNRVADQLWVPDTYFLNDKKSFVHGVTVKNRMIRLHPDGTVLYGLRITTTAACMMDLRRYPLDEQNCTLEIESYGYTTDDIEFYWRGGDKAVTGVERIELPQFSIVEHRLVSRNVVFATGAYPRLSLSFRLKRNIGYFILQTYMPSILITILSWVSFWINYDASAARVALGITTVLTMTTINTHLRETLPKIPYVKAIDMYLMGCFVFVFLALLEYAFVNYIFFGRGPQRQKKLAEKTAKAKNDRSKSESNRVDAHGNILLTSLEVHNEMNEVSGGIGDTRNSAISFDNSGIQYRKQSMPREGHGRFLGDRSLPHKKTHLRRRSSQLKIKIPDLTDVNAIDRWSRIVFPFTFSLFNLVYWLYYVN
Sequence of GABAA receptors α1, α2, α3 and α5 subtypes (Homo sapiens, UniProt P31644) (P18507 40-475 partner): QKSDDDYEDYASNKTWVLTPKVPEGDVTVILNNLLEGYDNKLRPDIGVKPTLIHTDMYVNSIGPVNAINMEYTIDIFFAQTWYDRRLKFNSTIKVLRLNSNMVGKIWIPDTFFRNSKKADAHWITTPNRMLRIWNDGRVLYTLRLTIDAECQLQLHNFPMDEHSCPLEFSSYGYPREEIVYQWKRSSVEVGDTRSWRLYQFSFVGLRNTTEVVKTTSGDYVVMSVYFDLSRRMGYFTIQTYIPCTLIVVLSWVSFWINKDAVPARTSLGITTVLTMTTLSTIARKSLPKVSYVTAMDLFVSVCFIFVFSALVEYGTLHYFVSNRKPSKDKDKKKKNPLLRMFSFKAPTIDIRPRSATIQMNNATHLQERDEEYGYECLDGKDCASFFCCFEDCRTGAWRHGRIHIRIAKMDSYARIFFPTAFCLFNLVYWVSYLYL

euploid mice = test: Dose-response in the delayed-matching-to-place task (DMTP); format: in vivo; conditions: 5 mg/kg, 30 min before testing; versus placebo; p<0.05
Method: FIG. 5 depicts results from a dose-response effect study of α5IA. The optimal α5IA promnesiant dose was determined in mice trained in the DMTP task. FIG. 5A: Schematic representation of the DMTP protocol. Each day, mice underwent 1 acquisition trial and 3 retention trials (inter-trial interval was 60 sec). The position of the platform was changed every day, but remained constant within each session.
To determine the optimal dose of α5IA, a dose-response study was performed in euploid mice trained in the delayed-matching-to-place task (DMTP), a classical learning and memory paradigm used to assess the promnesiant effects of drugs, and in particular of GABAA α5 inverse agonists [ref 8, 9, 11].
Experiments were performed in a Morris water maze (MWM). The maze was a 150-cm diameter pool filled with opacified water kept at 19° C. and equipped with a 9 cm diameter platform submerged 1 cm under the water surface. A total of 27 mice were used. Animals were randomly and equally distributed in 3 groups (placebo, α5IA 1 mg/kg, α5IA 5 mg/kg). Training was performed during 7 days. […] Memory assessment was determined by comparing the distance to reach the platform on the first trial (acquisition trial) and the mean distance traveled in subsequent trials (retention trials).

[4] = tested on: young and elderly subjects; conditions: cited from earlier work
euploid and Ts65Dn mice [5] = test: Anxiety-related behavior in the elevated plus maze; format: in vivo; conditions: for Time spent in the open arms of the elevated plus-maze: acute, one single 15 mg/kg i.p. injection
Method: FIG. 6 depicts results from an anxiety-related behavior study of α5IA. Anxiety was assessed in the elevated plus maze, in both euploid and Ts65Dn mice under placebo or α5IA. Time spent in the open arms of the elevated plus-maze was taken as a measure of anxiety levels.
Modulation of anxiety-related behaviors by α5IA was more precisely assessed using an elevated-plus maze, in a total of 42 mice, 30 min after i.p. injections (placebo: 11 euploid and 7 Ts65Dn mice; α5IA (15 mg/kg): 14 euploid and 10 Ts65Dn mice). The maze was constructed of black perspex (length, 28 cm; width, 5 cm; height from floor, 40 cm; overall luminosity in open arms: 70 1×) with two opposing open arms, and two enclosed arms equipped with three 16 cm high walls. Mice were placed in the central region of the maze and behavior was recorded for a 5 min period using the Any. Maze software that automatically calculates the time spent in the different parts of the maze (e.g., open and enclosed arms).
To explore the potential adversity of chronic injections of α5IA (5 mg/kg), another group of euploid mice was treated for two weeks (5 injections/week; 5 α5IA treated mice; 5 placebo-treated mice). After repeated treatment, these mice were evaluated in the elevated plus maze as described above.

mouse hippocampal slice = conditions: cited from earlier work
[6] = mainly in urine and in feces; cited from earlier work
mice = test: Anatomopathology after chronic treatment; format: in vivo; conditions: 5 mg/kg, 5 injections/week for 5 weeks
Method: FIG. 8 depicts results from a histological lesion study of α5IA after chronic treatment. Following chronic treatment with α5IA (5 mg/kg; 5 injections/week for 5 weeks), different organs were ablated and processed for routine histopathological examination. […] The same negative findings were observed following Periodic acid-Schiff staining of the tissues (not illustrated). […] The size and distribution of urine crystals (not illustrated) appeared to be very similar in the different groups. The scale bar represents 100 μm.
Mice treated for 2 weeks with α5IA and tested in the elevated plus maze were further treated for another 3 weeks. On the last day of treatment, urine samples were collected 2 hours after α5IA or placebo i.p. administration. Urine was stored at −20° C. before analysis. The day after, mice were injected i.p. with an overdose of sodium pentobarbital. Deeply anaesthetized mice received a PBS flush by means of an intracardiac perfusion. For anatomo-pathological examination, 3 additional euploid non-injected mice were also sacrificed. Liver, kidney, brain and spleen were dissected and fixed in a 10% formalin solution. Tissues were then paraffin-embedded and cut using a microtome (5 μm thick sections) before being processed for routine histopathological evaluation (hematein-eosin and Periodic acid-Schiff stainings).

Compound: Cc1cc(-c2nnc3c4ccccc4c(OCc4cn(C)nn4)nn23)no1 [α5IA, 3-(5-methylisoxazol-3-yl)-6-[(1-methyl-1,2,3-triazol-4-yl)methyloxy]-1,2,4-triazolo[3,4-a]phthalazine]
- cognitive performance in variant of the Morris water maze task (rats; rat, in vivo): enhance cognitive performance
- effective promnesiant dose in the MWM test (rats; rats): 3 mg/kg
- Convulsant mice rate (euploid and Ts65Dn mice [1]; Euploids): 0/6
- Convulsant mice rate (euploid and Ts65Dn mice [1]; Ts65Dn): 0/7
- efficacy at the α1, α2 and α3 subtypes [2]: low or antagonist efficacy
- efficacy at the α5 subtype [3]: exhibits inverse agonism
- Performance (distance to platform) between acquisition and retention trials (euploid mice): significantly higher performance
- tolerability [4]: well tolerated
- Time spent in the open arms of the elevated plus-maze (euploid and Ts65Dn mice [5]; Ts65Dn mice, p<0.05): significantly reduced the time spent in open arms
- Time spent in the open arms of the elevated plus-maze (euploid and Ts65Dn mice [5]; euploid mice): did not modify the behavior
- anxiety levels in the elevated plus maze (euploid and Ts65Dn mice [5]; semi-chronic, 5 mg/kg 5 times a week for 2 weeks, euploid mice, p>0.73): did not alter the anxiety levels
- long-term potentiation (mouse hippocampal slice): enhance long-term potentiation
- metabolism [6]: exclusively metabolized into the hydroxymethyl isoxazol metabolite M1
- abnormal crystals in brain, hepatic and renal tissues under polarized light (mice): lack of abnormal crystals
- histological lesions (mice; liver, kidney, brain): did not induce any histological lesions
